Reference: patent publication US20220339135A1, “COMPOSITIONS AND METHODS FOR MODULATING AN INFLAMMATORY RESPONSE” (Enzychem Lifesciences Corporation, priority 2019, published 2022)

How the values were obtained:
[1] = [14C] PLAG radioactivity in blood and lymph fluid; assay type: in vivo, rats; details: single oral [14C] PLAG
Experimental: Quantification of PLAG in blood and lymph fluid was performed in Mitsubishi Chemical Medicine Corporation (Japan) by radioactivity analysis. [^14C] PLAG was synthesized by the LSI Medience Corporation (Kumamoto, Japan). The specific activities were 348.9 kBq/mg. The purity of the compound was 99.7%. The pharmacokinetics of [^14C] PLAG were determined in Crl: CD (SD) rats (Charles River Laboratories Japan, Inc.). Rats received [^14C] PLAG at 100 mg/5 mL/kg (dosing radioactivity: 5 MBq/kg) via the oral route. To determine radioactivity concentration in lymph fluid, the abdominal large thoracic duct-cannulated animals were fitted with collars while under isoflurane anesthesia and were subjected to the administration at least 30 minutes after collar fitting. […] Each of the collected samples was measured for radioactivity. Blood was collected from the subclavian vein and used to determine the radioactivity. […] Radioactivity was measured by LSC (Tri-Carb 2300TR. Perkin Elmer, Inc) with the tSIE (transformed spectral index of external standard) method for the quenching correction.
Quantification of PLAG in blood and lymph fluid was performed in Mitsubishi Chemical Medicine Corporation (Japan) by radioactivity analysis. […] PLAG were determined in Crl: CD (SD) rats (Charles River Laboratories Japan, Inc.). […] PLAG at 100 mg/5 mL/kg (dosing radioactivity: 5 MBq/kg) via the oral route. […]

[2] = system: lysosomal activity in THP-1 cells; assay: MSU-induced lysosomal activity; assay type: cell-based, human; details: MSU/PLAG treated cells
Experimental: THP-1 cells were divided into two groups: 1) MSU treated group and 2) MSU/PLAG treated group. For MSU treated group, THP-1 cells were stimulated with monosodium urate (MSU) crystal (400 μg/ml) for 0, 10, 20, 30, 40, 50, 60 minutes. For MSU/PLAG treated group, THP-1 cells were pre-incubated with PLAG (100 μg/ml) for an hour and then stimulated with monosodium urate (MSU) crystal (400 μg/ml) for 0, 10, 20, 30, 40, 50, 60 minutes. Then, cells were harvested. (A) To detect for the P2Y6 receptor on the membrane surface, cells were fixed with 4% paraformaldehyde (Sigma-Aldrich) and incubated with PBS containing 1% BSA for blocking. They were labeled with the rabbit anti-P2Y6 receptor antibody (1:200, APR-011, Alomone Labs, Jerusalem, Israel) for 1 h. The detection Ab was used with Alexa Flour 488 goat anti-rabbit IgG (Invitrogen). (B) To detect lysosomal activity, THP-1 cells were stained with Texas red conjugated-LYSO-ID® Lysosomal Detection Kit (Enzo Life Sciences, Inc.). Finally, cells were washed with 1% FBS/PBS and mounted with DAPI-containing fluorescence microscopy mounting medium (Invitrogen). Confocal samples were analyzed with a laser scanning confocal microscope (Carl Zeiss, Oberkochen, Germany). For flow cytometric analysis, cells were washed and analyzed with a FACSVerse flow cytometer (BD Biosciences). FlowJo software (Tree Star, OR, USA) was used data processing.

[3] = PLAG uptake in the cisterna chyli (TG colorimetric assay); assay type: in vivo, mice
Experimental: Balb/c mice were purchased from Koatech Co. (Pyungtaek, Republic of Korea) and maintained under specific pathogen-free conditions. All animal experimental procedures were performed in accordance with the Guide for the Care and Use of Laboratory Animals. The study included 30 male Balb/c mice (mean age: 9 weeks, range: 8 to 10 weeks). For the time point study (experiment 1), mice were divided into 5 groups, with 3 mice per group. Mice were given a single administration of PLAG orally (2500 mg/kg BW) in a volume of 150 μL. And then mice are sacrificed after various time intervals, 0, 15, 30 and 60 minutes. To determine the difference in PLAG concentration (experiment 2), mice were divided into 5 groups, with 3 mice per group. They were given a single administration of PLAG orally (50, 250, 500, and 2500 mg/kg BW) in a volume of 150 μL, then sacrificed after 1 h post-injection.
The blood sample was obtained under anesthesia by heart puncture. Serum samples were separated by centrifuge 3,000 rpm for 10 minutes and stored at −80° C. for analysis. Lymph fluid from the cisterna chyli was collected according to the methods described by Masayuki, lymph fluid in cisterna chyli appears milky white color with a high concentration of triglyceride (TG) and located along the abdominal vena cava and aorta on the cranial side of the renal vein. A 30 ½-gauge syringe was carefully inserted into cisterna chyli. Then recovered the lymphatic fluid, diluted liquid with 10 uL of phosphate-buffered saline (Welgene, Gyeongsangbuk-do, Republic of Korea). Diluted lymph fluid samples were kept frozen for assay.
Triglyceride in blood and lymph fluid was measured using a commercial assay kit (Wako Diagnostics, Osaka, Japan). Because PLAG has structural similarities to TGs containing glycerol backbone, this method may be applicable to PLAG detection. Multi calibrator lipids (Wako) were used for standard reagent. The absorbance was read at 650 nm using an ELISA microplate reader (Molecular Devices Corporation).
2500mpk of PLAG was orally administered to diet mice whose body weight is 25 g, absorbed PLAG was collected from cisterna chyli at 1 hr. Absorbed PLAG was evaluated by TG colorimetric assay. The TG concentration was multiplied by the dilution factor and the conversion factor, which is the coefficient required to convert to triglyceride concentration to the PLAG concentration. Administered 62.5 mg of PLAG was absorbed through enterocytes and detected 28.2 mg of PLAG at cisterna chyli within 1 hour with about 50% of absorptive efficacy (FIG. 21E).

## CCCCC/C=C\C/C=C\CCCCCCCC(=O)OC(COC(C)=O)COC(=O)CCCCCCCCCCCCCCC (racemic) [PLAG, 1-palmitoyl-2-linoleoyl-3-acetylglycerol]
[1]
  PLAG in lymphatic vessel versus blood vessel: More PLAG was detected in the lymphatic vessel than blood vessel
[1]; blood and lymph fluid
  time of highest concentration: 8 h
[2]
  lysosomal activity detected: about 10 minutes
  lysosomal activity returned: about 30 minutes
[3]; 62.5 mg administered (2500mpk, 25 g mice), 1 hr
  PLAG detected at cisterna chyli / lymph fluid: 28.2 mg
[3]; 50, 250, 500, 2500mpk, dose-dependent
  time absorbed PLAG observed at the cisterna chyli: ≤ 1 h
[3]; 2500mpk, mice fasted 6 hours
  time PLAG detected in cisterna chyli: 60 min
[3]; cisterna chyli within 1 hour
  absorptive efficacy: about 50%
